25 compounds from patent US11149035B2, “Chemical compounds as H—PGDS inhibitors” (GlaxoSmithKline Intellectual Property Development Limited, priority 2017, dated 2021) can be followed below.

The assay addresses T1, haematopoietic prostaglandin D synthase (H-PGDS) (Homo sapiens, UniProt O60760).
T1 construct: Full length human H-PGDS cDNA (Invitrogen Ultimate ORF IOH13026) was amplified by PCR; 6-His (N); TEV protease cleavage site (N); made in house; host or cells: E. coli BL21 (DE3*)
The experiment in a line: H-PGDS RapidFire high throughput mass spectrometry assay (conversion of PGH2 to PGD2). Format: biochemical. The conditions noted are these: 10 nM H-PGDS, PGH2 formed in situ by COX-2 from arachidonic acid; four parameter curve fit; read-out: Potency Range (mean pIC50) (converted). The protocol:
The H-PGDS RapidFire™ mass spectrometric assay monitors conversion of prostaglandin H2 (PGH2) to prostaglandin D2 (PGD2) by haematopoietic prostaglandin D synthase (H-PGDS). In the assay format described here, the substrate (PGH2) is formed in situ by the action of cyclooxygenase-2 on arachidonic acid. This first step is set up to be fast, and generates a burst of PGH2 at ˜10 μM. The PGH2 is then further converted to PGD2 by the H-PGDS enzyme. […] Plates are then read on the RapidFire™ high throughput solid phase extraction system (Agilent) which incorporates a solid phase extraction step coupled to a triple quadrupole mass spectrometer (AB SCIEX). Relative levels of PGD2 and PGF2α, which acts as a surrogate for substrate, are measured and a percent conversion calculated. Inhibitors are characterised as compounds which lower the conversion of PGH2 to PGD2.
Full length human H-PGDS cDNA (Invitrogen Ultimate ORF IOH13026) was amplified by PCR with the addition of a 5′ 6-His tag and TEV protease cleavage site. The PCR product was digested with NdeI and XhoI and ligated into pET22b+ (Merck Novagen®). Expression was carried out in E. coli strain BL21 (DE3*) using auto-induction Overnight Express™ Instant TB medium (Merck Novagen®) supplemented with 1% glycerol. The culture was first grown at 37° C. and the temperature was reduced to 25° C. when OD600 reached 2.0. Cells were harvested by centrifugation after a further 18 hours. 10 g of E. coli cell pellet was suspended to a total volume of 80 mL in lysis buffer (20 mM Tris-Cl pH 7.5, 300 mM NaCl, 20 mM imidazole, 5 mM β-mercaptoethanol, 10% glycerol). 1 mg/mL protease inhibitors (Protease Inhibitor Cocktail Set III, Merck Calbiochem®) and 1 mg/mL lysozyme were added to the cell suspension. The suspension was then sonicated for 5 min (UltraSonic Processor VCX 750, Cole-Parmer Instrument Co.) with a micro probe (50% amplitude, 10 sec on/off) and then centrifuged at 100,000 g for 90 minutes (at 4° C.). The supernatant was loaded onto a Ni-NTA HiTrap column (5 mL, GE Healthcare, pre-equilibrated in lysis buffer). The column was washed with 10 column volumes of lysis buffer and eluted with lysis buffer containing 500 mM imidazole. The pooled protein peak fractions were concentrated using a 10 kDa centrifugal filter at 3500 g and 4° C. (Amicon Ultra-15 centrifugal filter unit with Ultracel-10 membrane from Millipore). Further purification of the concentrated protein was carried out using gel filtration chromatography on a HiLoad 26/600 Superdex 75 preparative grade column (GE Healthcare Life Sciences) using 50 mM Tris pH 7.5, 50 mM NaCl, 1 mM dithiothreitol, 1 mM MgCl2. Fractions containing the protein were pooled, concentrated as described above, and stored at −80° C.
The full length human COX-2 gene (accession number L15326) was amplified by PCR to generate an EcoRI—HindIII fragment containing an in-frame FLAG tag. This was subcloned into pFastBac 1 (Invitrogen). The COX-2 FLAG plasmid was recombined into the baculovirus genome according to the BAC-to-BAC protocol described by Invitrogen. Transfection into Spodoptera frugiperda (Sf9) insect cells was performed using Cellfectin (Invitrogen), according to the manufacturer's protocol. Super Sf9 cells were cultured in EX420 media (SAFC Biosciences) to a density of approximately 1.5×10^6 cells/mL within a wave bioreactor. Recombinant virus was added at a Multiplicity of Infection (MOI) of 5 and the culture was allowed to continue for 3 days. Cells were harvested using a continuous feed centrifuge run at 2500 g at a rate of approximately 2 L/min with cooling. The resultant cell slurry was re-centrifuged in pots (2500 g, 20 min, 4° C.) and the cell paste was stored at −80° C. 342 g of cell paste was re-suspended to a final volume of 1600 mL in a buffer of 20 mM Tris-Cl pH 7.4, 150 mM NaCl, 0.1 mM EDTA, 1.3% w/v n-octyl-[…] containing 20 Complete EDTA-free Protease Inhibitor Cocktail tablets (Roche Applied Science). […]

T1 sequence (O60760 whole entry): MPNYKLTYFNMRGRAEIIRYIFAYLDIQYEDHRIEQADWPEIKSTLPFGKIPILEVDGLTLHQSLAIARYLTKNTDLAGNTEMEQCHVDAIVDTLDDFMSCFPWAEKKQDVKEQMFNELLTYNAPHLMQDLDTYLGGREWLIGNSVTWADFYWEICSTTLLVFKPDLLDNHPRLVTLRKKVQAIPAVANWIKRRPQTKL

Consider `CC(C)(O)[C@H]1C[C@H](NC(=O)c2cnc3nc(C4CC4)c(Cl)cc3c2)C1` [Example 73, 6-Chloro-7-cyclopropyl-N-(trans-3-(2-hydroxypropan-2-yl)cyclobutyl)-1,8-naphthyridine-3-carboxamide], for which the IC50 was less than 10 nM. Next, `C[C@]1(O)C[C@H](NC(=O)c2cnc3nc(C4CC4)ccc3c2)C1` [Example 46, 7-Cyclopropyl-N-((1r,3s)-3-hydroxy-3-methylcyclobutyl)-1,8-naphthyridine-3-carboxamide]: 100 to 1000 nM; `COc1ncc2cc(C(=O)N[C@H]3CC[C@H](C(C)(C)O)CC3)cnc2n1` [Example 80, N-((trans)-4-(2-Hydroxypropan-2-yl)cyclohexyl)-2-methoxypyrido[2,3-d]pyrimidine-6-carboxamide]: 100 to 1000 nM; `C[C@@H]1CNC(=O)[C@H]1NC(=O)c1cnc2cc(N3CC[C@@H]3C)ncc2c1` [Example 28, N-((3S,4R)-4-Methyl-2-oxopyrrolidin-3-yl)-7-((S)-2-methylazetidin-1-yl)-1,6-naphthyridine-3-carboxamide]: 10 to 79.4 nM.

In the case of `C[C@H]1CCN1c1cc2ncc(C(=O)N[C@H]3C[C@H](C(C)(C)O)C3)cc2cn1` [Example 26, N-(trans-3-(2-Hydroxypropan-2-yl)cyclobutyl)-7-((S)-2-methylazetidin-1-yl)-1,6-naphthyridine-3-carboxamide], the IC50 was 10 to 79.4 nM. The value for `O=C(N[C@H]1C[C@@H](N[C@H](CO)C(F)(F)F)C1)c1cnc2nc(C3CC3)ccc2c1` [Example 68, 7-Cyclopropyl-N-(cis-3-(((R)-1,1,1-trifluoro-3-hydroxypropan-2-yl)amino)cyclobutyl)-1,8-naphthyridine-3-carboxamide] was 100 to 1000 nM; that for `CC(C)(O)[C@H]1CC[C@H](NC(=O)c2cnc3nc(N4CC(F)C4)ccc3c2)CC1` [Example 6, 7-(3-Fluoroazetidin-1-yl)-N-(trans-4-(2-hydroxypropan-2-yl)cyclohexyl)-1,8-naphthyridine-3-carboxamide] was 10 to 79.4 nM; that for `O=C(N[C@H]1C[C@H](N[C@H](CO)C(F)(F)F)C1)c1cnc2nc(C3CC3)ccc2c1` [Example 69, 7-Cyclopropyl-N-(trans-3-(((R)-1,1,1-trifluoro-3-hydroxypropan-2-yl)amino)cyclobutyl)-1,8-naphthyridine-3-carboxamide] was 10 to 79.4 nM. The value for `CC(C)(O)[C@H]1CC[C@H](NC(=O)c2cnc3nc(C4CC4)c(Cl)cc3c2)CC1` [Example 27, 6-Chloro-7-cyclopropyl-N-((trans)-4-(2-hydroxypropan-2-yl)cyclohexyl)-1,8-naphthyridine-3-carboxamide] was less than 10 nM; that for `CC(C)(O)C1CC2(CC(NC(=O)c3cnc4cc(C5CC5)ncc4c3)C2)C1` (racemic) [Example 34, 7-Cyclopropyl-N-(6-(2-hydroxypropan-2-yl)spiro[3.3]heptan-2-yl)-1,6-naphthyridine-3-carboxamide] was less than 10 nM; that for `O=C(N[C@H]1CCNC1=O)c1cnc2nc(C3CC3)ccc2c1` [Example 44, (S)-7-Cyclopropyl-N-(2-oxopyrrolidin-3-yl)-1,8-naphthyridine-3-carboxamide] was 10 to 79.4 nM. Next, `C[C@H]1CCN1c1nc2ncc(C(=O)N[C@H]3C[C@H](C(C)(C)O)C3)cc2cc1Cl` [Example 65, 6-Chloro-N-(trans-3-(2-hydroxypropan-2-yl)cyclobutyl)-7-((S)-2-methylazetidin-1-yl)-1,8-naphthyridine-3-carboxamide]: less than 10 nM. Take `C[C@H]1CCN1c1cc2ncc(C(=O)N[C@H]3CC[C@H](C(C)(C)O)CC3)cc2cn1` [Example 13, N-(trans-4-(2-Hydroxypropan-2-yl)cyclohexyl)-7-((S)-2-methylazetidin-1-yl)-1,6-naphthyridine-3-carboxamide]: the IC50 is less than 10 nM. The value for `CC(C)(O)[C@H]1CC[C@H](NC(=O)c2cnc3nc(NCC(F)F)ccc3c2)CC1` [Example 16, 7-((2,2-Difluoroethyl)amino)-N-(trans-4-(2-hydroxypropan-2-yl)cyclohexyl)-1,8-naphthyridine-3-carboxamide] was 100 to 1000 nM. Next, `CC(C)(O)[C@H]1CC[C@H](NC(=O)c2cnc3nc(N4CCC4)c(Cl)cc3c2)CC1` [Example 25, 7-(Azetidin-1-yl)-6-chloro-N-(trans-4-(2-hydroxypropan-2-yl)cyclohexyl)-1,8-naphthyridine-3-carboxamide]: less than 10 nM; `O=C(N[C@H]1CC[C@H](N2CC(F)C2)CC1)c1cnc2cc(C3CC3)ncc2c1` [Example 35, 7-Cyclopropyl-N-(trans-4-(3-fluoroazetidin-1-yl)cyclohexyl)-1,6-naphthyridine-3-carboxamide]: 10 to 79.4 nM. With `C[C@]1(O)CC[C@H](NC(=O)c2cnc3nc(C4CC4)ccc3c2)CC1` [Example 48, 7-Cyclopropyl-N-((1r,4r)-4-hydroxy-4-methylcyclohexyl)-1,8-naphthyridine-3-carboxamide], the IC50 was 10 to 79.4 nM.

In the case of `C[C@H]1CCN1c1cc2ncc(C(=O)N[C@H]3C[C@@](C)(O)C3)cc2cn1` [Example 23, N-((1s,3R)-3-Hydroxy-3-methylcyclobutyl)-7-((S)-2-methylazetidin-1-yl)-1,6-naphthyridine-3-carboxamide], the IC50 is 100 to 1000 nM.

Consider `C[C@]1(O)CC[C@H](NC(=O)c2cnc3cc(C4CC4)ncc3c2)CC1` [Example 30, 7-Cyclopropyl-N-((1r,4r)-4-hydroxy-4-methylcyclohexyl)-1,6-naphthyridine-3-carboxamide], for which the IC50 is 100 to 1000 nM. Next, `CC(C)(O)C1CC2(CC(NC(=O)c3cnc4nc(C5CC5)ccc4c3)C2)C1` (racemic) [Example 49, 7-Cyclopropyl-N-(6-(2-hydroxypropan-2-yl)spiro[3.3]heptan-2-yl)-1,8-naphthyridine-3-carboxamide]: 10 to 79.4 nM; `CC(C)(O)[C@H]1CC[C@H](NC(=O)c2cnc3ncccc3c2)CC1` [Example 2, N-(trans-4-(2-Hydroxypropan-2-yl)cyclohexyl)-1,8-naphthyridine-3-carboxamide]: 1260 to 10000 nM. The value for `O=C(N[C@H]1CCNC1=O)c1cnc2cc(N3CCC3)ncc2c1` [Example 20, (S)-7-(Azetidin-1-yl)-N-(2-oxopyrrolidin-3-yl)-1,6-naphthyridine-3-carboxamide] was 10 to 79.4 nM. As to `COc1cc2ncc(C(=O)N[C@H]3CC[C@H](C(C)(C)O)CC3)cc2cn1` [Example 51, N-(trans-4-(2-Hydroxypropan-2-yl)cyclohexyl)-7-methoxy-1,6-naphthyridine-3-carboxamide], the IC50 was 10 to 79.4 nM. Next, `CC(C)(O)[C@H]1CC[C@H](NC(=O)c2cnc3nc(NCC(F)(F)F)ccc3c2)CC1` [Example 17, N-(trans-4-(2-Hydroxypropan-2-yl)cyclohexyl)-7-((2,2,2-trifluoroethyl)amino)-1,8-naphthyridine-3-carboxamide]: 100 to 1000 nM; `C[C@]1(O)C[C@H](NC(=O)c2cnc3nc(C4CC4)c(Cl)cc3c2)C1` [Example 75, 6-Chloro-7-cyclopropyl-N-((1r,3r)-3-hydroxy-3-methylcyclobutyl)-1,8-naphthyridine-3-carboxamide]: 10 to 79.4 nM.
